These results are taken from PMC6315005, “5F-Cumyl-PINACA in ‘e-liquids’ for electronic cigarettes: comprehensive characterization of a new type of synthetic cannabinoid in a trendy product including investigations on the in vitro and in vivo phase I metabolism of 5F-Cumyl-PINACA and its non-fluorinated analog Cumyl-PINACA” (Forensic Toxicology, 2018).

The test system of one experiment is CB1 receptors. Set-up: method as in PMID 28792725. Conditions: mouse AtT-20 neuroblastoma cells, membrane potential; cited from earlier work.
Another experiment has as its system CB2 receptors. Set-up: method as in PMID 28792725. Conditions: mouse AtT-20 neuroblastoma cells, membrane potential; cited from earlier work.
The target of another experiment is T1, CB1 (Homo sapiens, UniProt P21554).
T1 construct: purchased DiscoveRx (Fremont, CA, USA)
T1 sequence (P21554 whole entry): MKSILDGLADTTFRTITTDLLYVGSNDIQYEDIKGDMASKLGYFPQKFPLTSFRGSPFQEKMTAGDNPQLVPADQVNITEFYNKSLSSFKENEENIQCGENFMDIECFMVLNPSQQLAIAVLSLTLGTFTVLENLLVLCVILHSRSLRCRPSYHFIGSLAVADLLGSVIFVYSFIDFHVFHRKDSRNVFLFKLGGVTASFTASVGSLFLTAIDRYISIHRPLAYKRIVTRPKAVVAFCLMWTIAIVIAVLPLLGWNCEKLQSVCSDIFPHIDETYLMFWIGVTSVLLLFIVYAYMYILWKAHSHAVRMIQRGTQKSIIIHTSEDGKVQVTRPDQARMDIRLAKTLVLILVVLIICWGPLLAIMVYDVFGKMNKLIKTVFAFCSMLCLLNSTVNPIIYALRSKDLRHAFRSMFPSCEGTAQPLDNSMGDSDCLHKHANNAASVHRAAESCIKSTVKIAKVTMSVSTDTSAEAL
The experiment is described as follows: cAMP biosensor assay with CB1 as target (DiscoveRx). In kind it is cell-based. Conditions: for Curve top: agonist format, 20 µM forskolin; for Emax: read-out: Maximum response (compared to CP-55,940). How it is done:
Each compound was tested in duplicates; to induce response, 20 µM forskolin was used.

Molecules are shown by their SMILES. pEC50: −log10 of the molar value. Like-named read-outs stand apart in the source and are kept apart here.

As for `CC(C)(NC(=O)c1nn(CC2CCCCC2)c2ccccc12)c1ccccc1`, the “potency of CB1 receptor activation compared to CP-55,940” value in the experiment with CB1 receptors is “greater potency than CP-55,940”. For the same compound, the “potency of CB2 receptor activation compared to CP-55,940” value with CB2 receptors is reported as “greater potency than CP-55,940”.
As to `CC(C)C(NC(=O)c1nn(Cc2ccc(F)cc2)c2ccccc12)C(N)=O` (stereo not drawn) [AB-FUBINACA], on CB1, the pEC50 was 9.05 and the Curve top was 97.4. Further, on CB1 (control ligand CP-55,940), the Emax was determined as 97.8%.
On the same counts, the results for `CCCCCn1nc(C(=O)NC(C(N)=O)C(C)C)c2ccccc21` (stereo not drawn) [AB-PINACA] are 8.76, 92.3 and 95.3%.
For `CC(C)C(NC(=O)c1nn(CC2CCCCC2)c2ccccc12)C(N)=O` (stereo not drawn) [AB-[…]], at CB1, the pEC50 was 9.55, the Curve top worked out at 94.8 and the Emax worked out at 94.8%.
At CB1, `O=C(c1cccc2ccccc12)c1cn(CCCCCF)c2ccccc12` [AM-2201] gave a pEC50 of 9.35 and a Curve top of 103. Moreover, on CB1 (control ligand CP-55,940), the Emax came to 101%.
`CCCCn1cc(C(=O)NC(C)(C)c2ccccc2)c2ccccc21` [Cumyl-BICA]: the “potency of CB1 receptor activation compared to CP-55,940” value in the experiment on CB1 receptors is reported as “greater potency than CP-55,940”. The “potency of CB2 receptor activation compared to CP-55,940” value with CB2 receptors is “greater potency than CP-55,940”.
On to `CCCCn1nc(C(=O)NC(C)(C)c2ccccc2)c2ccccc21` [Cumyl-BINACA], for which the “potency of CB1 receptor activation compared to CP-55,940” value in the experiment with CB1 receptors is listed as “greater potency than CP-55,940”. The “potency of CB2 receptor activation compared to CP-55,940” value in the experiment with CB2 receptors is listed as “greater potency than CP-55,940”.
On to `CC(C)(NC(=O)c1cn(CC2CCCCC2)c2ccccc12)c1ccccc1` [Cumyl-CHMICA], for which the “potency of CB1 receptor activation compared to CP-55,940” value in the experiment with CB1 receptors was “greater potency than CP-55,940”. Besides, the “potency of CB2 receptor activation compared to CP-55,940” value in the experiment on CB2 receptors is “greater potency than CP-55,940”.
Take `CC(C)(NC(=O)c1nn(Cc2ccc(F)cc2)c2ccccc12)c1ccccc1` [Cumyl-FUBINACA]: the “potency of CB1 receptor activation compared to CP-55,940” value in the experiment on CB1 receptors is given as “greater potency than CP-55,940”. Besides, the “potency of CB2 receptor activation compared to CP-55,940” value in the experiment on CB2 receptors is given as “greater potency than CP-55,940”.
The compound `CCCCCn1c2ccccc2c2cc(C(=O)c3cccc4ccccc34)ccc21` [EG-018] came in with a Curve top on CB1 of 74.3. Moreover, on CB1 (control ligand CP-55,940), the Emax came to 71.8%.
`CCCCCn1cc(C(=O)c2cccc3ccccc23)c2ccccc21` [JWH-018]: at CB1, the pEC50 is 8.95 and the Curve top was 97.6. Moreover, the Emax on CB1 (control ligand CP-55,940) was found to be 97.4%.
On the same counts, the results for `COC(=O)C(NC(=O)c1cn(CC2CCCCC2)c2ccccc12)C(C)(C)C` (stereo not drawn) [MDMB-CHMICA] are 9.85, 94.8 and 94.6%.
Turning to `O=C(c1cccc2ccccc12)c1nn(CCCCCF)c2ccccc12` [THJ-2201], at CB1, the pEC50 is 8.77 and the Curve top is 95.6. Besides, at CB1 (control ligand CP-55,940), the Emax was 91.9%.
